How the values were obtained:
[1] = compound: CN(CC[C@H](CSC1=CC=CC=C1)NC2=C(C=C(C=C2)S(=O)(=O)NC(=O)C3=CC=C(C=C3)N4CCC(CC4)[C@H](C5=CC=CC=C5C6=CC=C(C=C6)Cl)O)S(=O)(=O)C(F)(F)F)CCO [AZD4320]; conditions: max 1 µM
Method in brief: (§1)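 Cancer cell lines were plated in 1536-well plates in 7.5 μl of DMEM/F12 or RPMI with 10% FBS and kept 24 hours at 37°C and 5% CO2 before 72 hours of dosing, with final DMSO typically 0.2%. CellTiter-Glo 2.0 luminescence measured viability, scaled between blank-well and DMSO-well means. Dose responses were fitted to a two-parameter logistic curve with a non-linear mixed effects model. This fit gives the single-agent IC50.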

[2] = compound: CC(C)n1c(=O)n(C)c2cnc3cc(F)c(-c4ccc(OCCCN5CCCCC5)nc4)cc3c21 [AZD1390]; conditions: max 0.3 µM
Method in brief: as §1

[3] = compound: C[C@@H](c1ccc2nccn2c1)n1nnc2ncc(-c3cnn(C)c3)nc21 [Savolitinib]; conditions: max 1 µM
Method in brief: as §1

[4] = compound: Cc1c2c(nn1C)CSCc1cc(n(C)n1)CSc1cc(c3ccccc3c1)OCCCc1c(C(=O)O)n(C)c3c-2c(Cl)ccc13 [AZD5991]; conditions: max 1 µM
Method in brief: as §1

[5] = compound: CC1=CN2[C@@H](C1)C=NC3=CC(=C(C=C3C2=O)OC)OCCCCCOC4=C(C=C5C(=C4)N=C[C@@H]6CC(=CN6C5=O)C)OC [SG3199]; conditions: max 0.001 µM
Method in brief: as §1

[6] = compound: COc1cccc2c1C(=O)c1c(O)c3c(c(O)c1C2=O)C[C@@](O)(C(=O)CO)C[C@@H]3O[C@H]1C[C@H](N)[C@H](O)[C@H](C)O1 [Doxorubicin]; conditions: max 1 µM
Method in brief: as §1

[7] = compound: O=c1[nH]cc(F)c(=O)[nH]1 [5-Fluorouracil]; conditions: max 20 µM
Method in brief: as §1

[8] = compound: NC1(c2ccc(-c3nc4ccn5c(=O)[nH]nc5c4cc3-c3ccccc3)cc2)CCC1 [MK-2206]; conditions: max 10 µM
Method in brief: as §1

[9] = compound: N#Cc1cnc(Nc2cc(NC[C@H]3CNCCO3)c(C(F)(F)F)cn2)cn1 [SRA737]; conditions: max 10 µM
Method in brief: as §1

[10] = compound: Cn1cnc2c(F)c(Nc3ccc(Br)cc3Cl)c(C(=O)NOCCO)cc21 [Selumetinib]; conditions: max 10 µM
Method in brief: as §1

[11] = compound: COc1cc([C@@H]2c3cc4c(cc3[C@@H](O[C@@H]3O[C@@H]5CO[C@@H](C)O[C@H]5[C@H](O)[C@H]3O)[C@H]3COC(=O)[C@H]23)OCO4)cc(OC)c1O [Etoposide]; conditions: max 10 µM
Method in brief: as §1

[12] = compound: CCc1c2c(nc3ccc(O)cc13)-c1cc3c(c(=O)n1C2)COC(=O)[C@]3(O)CC [SN-38]; conditions: max 0.3 µM
Method in brief: as §1

[13] = compound: Cc1nc(-c2cn3c(n2)-c2ccc(-c4cnn(C(C)(C)C(N)=O)c4)cc2OCC3)n(C(C)C)n1 [Taselisib]; conditions: max 10 µM
Method in brief: as §1

[14] = compound: C[C@@H](Oc1cc(-c2cnn(C3CCNCC3)c2)cnc1N)c1c(Cl)ccc(F)c1Cl [Crizotinib]; conditions: max 10 µM
Method in brief: as §1

[15] = compound: C1CN(CCC1(C(=O)N[C@@H](CCO)C2=CC=C(C=C2)Cl)N)C3=NC=NC4=C3C=CN4 [AZD5363]; conditions: max 10 µM
Method in brief: as §1

[16] = compound: COc1cc2ncnc(Nc3ccc(F)c(Cl)c3)c2cc1OCCCN1CCOCC1 [Gefitinib]; conditions: max 10 µM
Method in brief: as §1

[17] = compound: CCN(CCO)CCCOc1ccc2c(Nc3cc(CC(=O)Nc4cccc(F)c4)[nH]n3)ncnc2c1 [AZD2811]; conditions: max 1 µM
Method in brief: as §1

[18] = compound: CC(=O)O[C@H]1C(=O)[C@@]2(C)[C@H]([C@H](OC(=O)c3ccccc3)[C@]3(O)C[C@H](OC(=O)[C@H](O)[C@@H](NC(=O)c4ccccc4)c4ccccc4)C(C)=C1C3(C)C)[C@]1(OC(C)=O)CO[C@@H]1C[C@@H]2O [Paclitaxel]; conditions: max 3 µM
Method in brief: as §1

[19] = compound: C[C@@H]1COCCN1C2=NC(=NC(=C2)C3(CC3)[S@](=N)(=O)C)C4=C5C=CNC5=NC=C4 [AZD6738]; conditions: max 10 µM
Method in brief: as §1

[20] = compound: COc1cccc(OCCCN)c1-c1cc(Nc2cnc(C#N)cn2)n[nH]1 [Prexasertib]; conditions: max 1 µM
Method in brief: as §1

[21] = compound: C=CCn1c(=O)c2cnc(Nc3ccc(N4CCN(C)CC4)cc3)nc2n1-c1cccc(C(C)(C)O)n1 [AZD1775]; conditions: max 3 µM
Method in brief: as §1

[22] = compound: O=C(c1cc(Cc2n[nH]c(=O)c3ccccc23)ccc1F)N1CCN(C(=O)C2CC2)CC1 [Olaparib]; conditions: max 10 µM
Method in brief: as §1

[23] = compound: COc1cc(Nc2ncc3c(n2)-c2ccc(Cl)cc2C(c2c(F)cccc2OC)=NC3)ccc1C(=O)O [Alisertib]; conditions: max 10 µM
Method in brief: as §1

[24] = compound: Nc1ccn([C@@H]2O[C@H](CO)[C@@H](O)C2(F)F)c(=O)n1 [Gemcitabine]; conditions: max 0.3 µM
Method in brief: as §1

[25] = compound: O=C(Nc1ccc2[nH]nc(-c3ccncc3)c2c1)[C@@H]1CCN(CC(=O)N2CCN(c3ccc(-c4ncccn4)cc3)CC2)C1; conditions: max 5 µM
Method in brief: as §1

[26] = compound: CN(C)CCCOc1ccc(-c2ccc3ncc4c(c3c2)n(C2CCOCC2)c(=O)n4C)cn1 [AZD0156]; conditions: max 3 µM
Method in brief: as §1

[27] = compound: C1CC(C1)(C(=O)[O-])C(=O)[O-].N.N.[Pt+2] [Carboplatin]; conditions: max 10 µM
Method in brief: as §1

[28] = compound: CC1=C(C(=CC=C1)Cl)NC(=O)C2=CN=C(S2)NC3=CC(=NC(=N3)C)N4CCN(CC4)CCO [Dasatinib]; conditions: max 2 µM
Method in brief: as §1

[29] = compound: C[C@@H](Nc1cc(F)cc(F)c1)c1cc(C(=O)N(C)C)cc2c(=O)cc(N3CCOCC3)oc12 [AZD8186]; conditions: max 10 µM
Method in brief: as §1

[30] = compound: Cc1cc2ncnn2cc1Nc1ncc2c(n1)n(C1CCOCC1)c(=O)n2C [AZD7648]; conditions: max 10 µM
Method in brief: as §1

[31] = compound: CC(=O)Nc1cccc(-n2c(=O)n(C3CC3)c(=O)c3c(Nc4ccc(I)cc4F)n(C)c(=O)c(C)c32)c1 [Trametinib]; conditions: max 1 µM
Method in brief: as §1

[32] = compound: COc1nnc2ccc(N3CCC(c4ccc(OCCN5CCN(C)C(=O)[C@H]5C)cc4)CC3)nn12 [AZD5153]; conditions: max 1 µM
Method in brief: as §1

[33] = compound: CC1(C)CCC(CN2CCN(c3ccc(C(=O)NS(=O)(=O)c4ccc(NCC5CCOCC5)c([N+](=O)[O-])c4)c(Oc4cnc5[nH]ccc5c4)c3)CC2)=C(c2ccc(Cl)cc2)C1 [Venetoclax]; conditions: max 1 µM
Method in brief: as §1

[34] = compound: CS(=O)(=O)CCNCc1ccc(-c2ccc3ncnc(Nc4ccc(OCc5cccc(F)c5)c(Cl)c4)c3c2)o1 [Lapatinib]; conditions: max 10 µM
Method in brief: as §1

[35] = compound: CC(=O)c1c(C)c2cnc(Nc3ccc(N4CCNCC4)cn3)nc2n(C2CCCC2)c1=O [Palbociclib]; conditions: max 10 µM
Method in brief: as §1

Cell Line | IC50, cell viability 72 h [1] | IC50, cell viability 72 h [2] | IC50, cell viability 72 h [3] | IC50, cell viability 72 h [4] | IC50, cell viability 72 h [5] | IC50, cell viability 72 h [6] | IC50, cell viability 72 h [7] | IC50, cell viability 72 h [8] | IC50, cell viability 72 h [9] | IC50, cell viability 72 h [10] | IC50, cell viability 72 h [11] | IC50, cell viability 72 h [12] | IC50, cell viability 72 h [13] | IC50, cell viability 72 h [14] | IC50, cell viability 72 h [15] | IC50, cell viability 72 h [16] | IC50, cell viability 72 h [17] | IC50, cell viability 72 h [18] | IC50, cell viability 72 h [19] | IC50, cell viability 72 h [20] | IC50, cell viability 72 h [21] | IC50, cell viability 72 h [22] | IC50, cell viability 72 h [23] | IC50, cell viability 72 h [24] | IC50, cell viability 72 h [25] | IC50, cell viability 72 h [26] | IC50, cell viability 72 h [27] | IC50, cell viability 72 h [28] | IC50, cell viability 72 h [29] | IC50, cell viability 72 h [30] | IC50, cell viability 72 h [31] | IC50, cell viability 72 h [32] | IC50, cell viability 72 h [33] | IC50, cell viability 72 h [34] | IC50, cell viability 72 h [35]
EB-3 (Burkitt's Lymphoma) | > 1000 nM | > 300 nM | > 1000 nM | > 1000 nM | > 1 nM | 194 nM | > 20000 nM | > 10000 nM | > 10000 nM | > 10000 nM | 1020 nM | 52.9 nM | > 10000 nM | 7290 nM | > 10000 nM | > 10000 nM | > 1000 nM | 88.7 nM | 7040 nM | 86.4 nM | 555 nM | > 10000 nM | > 10000 nM | > 300 nM | > 5000 nM | > 3000 nM | > 10000 nM | > 2000 nM | > 10000 nM | > 10000 nM | > 1000 nM | 128 nM | > 1000 nM | > 10000 nM | > 10000 nM
PC-14 (Lung Adenocarcinoma) | > 1000 nM | > 300 nM | > 1000 nM | > 1000 nM | > 1 nM | > 1000 nM | > 20000 nM | > 10000 nM | 3330 nM | > 10000 nM | > 10000 nM | 104 nM | 4700 nM | 6020 nM | > 10000 nM | 127 nM | > 1000 nM | 8.94 nM | 2680 nM | 25.4 nM | 407 nM | > 10000 nM | 2960 nM | 56.2 nM | > 5000 nM | > 3000 nM | > 10000 nM | 129 nM | > 10000 nM | > 10000 nM | 453 nM | > 1000 nM | > 1000 nM | 1700 nM | > 10000 nM
LAMA-84 (Chronic Myelogenous Leukemia) | 486 nM | > 300 nM | > 1000 nM | > 1000 nM | > 1 nM | > 1000 nM | > 20000 nM | 5120 nM | 2110 nM | 1570 nM | 8280 nM | 24.6 nM | > 10000 nM | 527 nM | > 10000 nM | > 10000 nM | > 1000 nM | 37 nM | 2020 nM | 17.3 nM | 351 nM | > 10000 nM | 305 nM | 24.6 nM | 915 nM | > 3000 nM | > 10000 nM | < 2 nM | > 10000 nM | > 10000 nM | 16.3 nM | 146 nM | > 1000 nM | > 10000 nM | 3090 nM
KYSE-70 (Esophageal Squamous Cell Carcinoma) | > 1000 nM | > 300 nM | > 1000 nM | > 1000 nM | > 1 nM | > 1000 nM | > 20000 nM | > 10000 nM | > 10000 nM | > 10000 nM | > 10000 nM | > 300 nM | 4070 nM | > 10000 nM | > 10000 nM | > 10000 nM | > 1000 nM | > 3000 nM | > 10000 nM | 241 nM | > 3000 nM | > 10000 nM | > 10000 nM | > 300 nM | > 5000 nM | > 3000 nM | > 10000 nM | > 2000 nM | > 10000 nM | > 10000 nM | > 1000 nM | > 1000 nM | > 1000 nM | > 10000 nM | > 10000 nM

Reference: the supplement of paper PMC11061612
